Results: the NIST ThermoML archive (doi:10.1021/je400722h)
± gives the expanded uncertainty stated by the source.

What was measured:
[1] = xn = mol fraction of the nth substance listed; conditions: 101 kPa, Liquid; for speed of sound: Pulse-echo method; for mass density: Vibrating tube method
[2] = molar heat capacity at constant pressure; xn = mol fraction of the nth substance listed; conditions: 101 kPa, Liquid, Small sample (50 mg) DSC

Cc1ccccc1Cl [2-chlorotoluene] + C1COCO1
Conditions	mass density [kg/m3]	molar heat capacity at constant pressure [J/K/mol]	speed of sound [m/s]
[1], 298.15 K, x1 = 0.0902	1061.1 ± 1	–	1326.8 ± 1.1
[1], 298.15 K, x1 = 0.1536	1062.6 ± 1	–	1320 ± 1.1
[1], 298.15 K, x1 = 0.2167	1064 ± 1	–	1314.3 ± 1.1
[1], 298.15 K, x1 = 0.2734	1065.2 ± 1	–	1310.1 ± 1.1
[1], 298.15 K, x1 = 0.3169	1066.1 ± 1	–	1307.4 ± 1.1
[1], 298.15 K, x1 = 0.3843	1067.5 ± 1	–	1303.8 ± 1.1
[1], 298.15 K, x1 = 0.4301	1068.4 ± 1	–	1301.9 ± 1.1
[1], 298.15 K, x1 = 0.4831	1069.4 ± 1	–	1300.1 ± 1.1
[1], 298.15 K, x1 = 0.5278	1070.2 ± 1	–	1298.9 ± 1.1
[1], 298.15 K, x1 = 0.5834	1071.2 ± 1	–	1297.8 ± 1.1
[1], 298.15 K, x1 = 0.6265	1071.9 ± 1	–	1297.3 ± 1.1
[1], 298.15 K, x1 = 0.6793	1072.7 ± 1	–	1296.8 ± 1.1
[1], 298.15 K, x1 = 0.7315	1073.6 ± 1	–	1296.6 ± 1.2
[1], 298.15 K, x1 = 0.7829	1074.4 ± 1	–	1296.7 ± 1.2
[1], 298.15 K, x1 = 0.8242	1075 ± 1	–	1296.9 ± 1.2
[1], 298.15 K, x1 = 0.8565	1075.4 ± 1	–	1297.1 ± 1.2
[1], 298.15 K, x1 = 0.9013	1076 ± 1	–	1297.5 ± 1.2
[1], 298.15 K, x1 = 0.9325	1076.5 ± 1	–	1297.8 ± 1.2
[1], 298.15 K, x1 = 1	1077.3 ± 1	–	1298.7 ± 1.2
[1], 303.15 K, x1 = 0.0902	1054.9 ± 1	–	1304.4 ± 1.1
[1], 303.15 K, x1 = 0.1536	1056.4 ± 1	–	1297.8 ± 1.1
[1], 303.15 K, x1 = 0.2167	1057.9 ± 1	–	1292.5 ± 1.1
[1], 303.15 K, x1 = 0.2734	1059.3 ± 1	–	1288.8 ± 1.1
[1], 303.15 K, x1 = 0.3169	1060.2 ± 1	–	1286.4 ± 1.1
[1], 303.15 K, x1 = 0.3843	1061.7 ± 1	–	1283.5 ± 1.1
[1], 303.15 K, x1 = 0.4301	1062.7 ± 1	–	1281.9 ± 1.1
[1], 303.15 K, x1 = 0.4831	1063.7 ± 1	–	1280.3 ± 1.1
[1], 303.15 K, x1 = 0.5278	1064.6 ± 1	–	1279.3 ± 1.1
[1], 303.15 K, x1 = 0.5834	1065.7 ± 1	–	1278.4 ± 1.1
[1], 303.15 K, x1 = 0.6265	1066.5 ± 1	–	1277.9 ± 1.1
[1], 303.15 K, x1 = 0.6793	1067.4 ± 1	–	1277.4 ± 1.1
[1], 303.15 K, x1 = 0.7315	1068.3 ± 1	–	1277.3 ± 1.2
[1], 303.15 K, x1 = 0.7829	1069.1 ± 1	–	1277.4 ± 1.2
[1], 303.15 K, x1 = 0.8242	1069.8 ± 1	–	1277.6 ± 1.2
[1], 303.15 K, x1 = 0.8565	1070.3 ± 1	–	1277.8 ± 1.2
[1], 303.15 K, x1 = 0.9013	1071 ± 1	–	1278.5 ± 1.2
[1], 303.15 K, x1 = 0.9325	1071.5 ± 1	–	1279 ± 1.2
[1], 303.15 K, x1 = 1	1072.5 ± 1	–	1280.7 ± 1.2
[1], 308.15 K, x1 = 0.0902	1048.7 ± 1	–	1281.7 ± 1.1
[1], 308.15 K, x1 = 0.1536	1050.4 ± 1	–	1275.2 ± 1.1
[1], 308.15 K, x1 = 0.2167	1052 ± 1	–	1270.4 ± 1.1
[1], 308.15 K, x1 = 0.2734	1053.4 ± 1	–	1267 ± 1.1
[1], 308.15 K, x1 = 0.3169	1054.4 ± 1	–	1265.1 ± 1.1
[1], 308.15 K, x1 = 0.3843	1055.9 ± 1	–	1262.7 ± 1.1
[1], 308.15 K, x1 = 0.4301	1057 ± 1	–	1261.4 ± 1.1
[1], 308.15 K, x1 = 0.4831	1058.1 ± 1	–	1260.3 ± 1.1
[1], 308.15 K, x1 = 0.5278	1059 ± 1	–	1259.6 ± 1.1
[1], 308.15 K, x1 = 0.5834	1060.2 ± 1	–	1258.7 ± 1.1
[1], 308.15 K, x1 = 0.6265	1061 ± 1	–	1258.3 ± 1.1
[1], 308.15 K, x1 = 0.6793	1062 ± 1	–	1258 ± 1.1
[1], 308.15 K, x1 = 0.7315	1063 ± 1	–	1257.8 ± 1.1
[1], 308.15 K, x1 = 0.7829	1063.9 ± 1	–	1257.9 ± 1.2
[1], 308.15 K, x1 = 0.8242	1064.7 ± 1	–	1258.1 ± 1.2
[1], 308.15 K, x1 = 0.8565	1065.2 ± 1	–	1258.5 ± 1.2
[1], 308.15 K, x1 = 0.9013	1066 ± 1	–	1259.3 ± 1.2
[1], 308.15 K, x1 = 0.9325	1066.5 ± 1	–	1260.1 ± 1.2
[1], 308.15 K, x1 = 1	1067.6 ± 1	–	1262.7 ± 1.2
[2], 298.15 K, x1 = 0.0865	–	127.97 ± 2	–
[2], 298.15 K, x1 = 0.1145	–	129.85 ± 2	–
[2], 298.15 K, x1 = 0.1386	–	131.45 ± 2	–
[2], 298.15 K, x1 = 0.1829	–	134.37 ± 2.1	–
[2], 298.15 K, x1 = 0.2145	–	136.42 ± 2.1	–
[2], 298.15 K, x1 = 0.2573	–	139.17 ± 2.2	–
[2], 298.15 K, x1 = 0.2965	–	141.65 ± 2.2	–
[2], 298.15 K, x1 = 0.3217	–	143.22 ± 2.2	–
[2], 298.15 K, x1 = 0.3506	–	144.99 ± 2.2	–
[2], 298.15 K, x1 = 0.3902	–	147.38 ± 2.3	–
[2], 298.15 K, x1 = 0.4216	–	149.24 ± 2.3	–
[2], 298.15 K, x1 = 0.4654	–	151.78 ± 2.4	–
[2], 298.15 K, x1 = 0.5007	–	153.78 ± 2.4	–
[2], 298.15 K, x1 = 0.5418	–	156.06 ± 2.4	–
[2], 298.15 K, x1 = 0.5905	–	158.68 ± 2.5	–
[2], 298.15 K, x1 = 0.6218	–	160.32 ± 2.5	–
[2], 298.15 K, x1 = 0.663	–	162.44 ± 2.5	–
[2], 298.15 K, x1 = 0.6902	–	163.81 ± 2.5	–
[2], 298.15 K, x1 = 0.7118	–	164.88 ± 2.5	–
[2], 298.15 K, x1 = 0.7534	–	166.91 ± 2.6	–
[2], 298.15 K, x1 = 0.7927	–	168.78 ± 2.6	–
[2], 298.15 K, x1 = 0.8426	–	171.11 ± 2.6	–
[2], 298.15 K, x1 = 0.8914	–	173.35 ± 2.7	–
[2], 298.15 K, x1 = 0.9206	–	174.66 ± 2.7	–
[2], 303.15 K, x1 = 0.0865	–	129.15 ± 2	–
[2], 303.15 K, x1 = 0.1145	–	131.07 ± 2	–
[2], 303.15 K, x1 = 0.1386	–	132.71 ± 2.1	–
[2], 303.15 K, x1 = 0.1829	–	135.68 ± 2.1	–
[2], 303.15 K, x1 = 0.2145	–	137.77 ± 2.1	–
[2], 303.15 K, x1 = 0.2573	–	140.56 ± 2.2	–
[2], 303.15 K, x1 = 0.2965	–	143.06 ± 2.2	–
[2], 303.15 K, x1 = 0.3217	–	144.65 ± 2.2	–
[2], 303.15 K, x1 = 0.3506	–	146.45 ± 2.3	–
[2], 303.15 K, x1 = 0.3902	–	148.87 ± 2.3	–
[2], 303.15 K, x1 = 0.4216	–	150.75 ± 2.3	–
[2], 303.15 K, x1 = 0.4654	–	153.32 ± 2.4	–
[2], 303.15 K, x1 = 0.5007	–	155.35 ± 2.4	–
[2], 303.15 K, x1 = 0.5418	–	157.66 ± 2.4	–
[2], 303.15 K, x1 = 0.5905	–	160.33 ± 2.5	–
[2], 303.15 K, x1 = 0.6218	–	162.01 ± 2.5	–
[2], 303.15 K, x1 = 0.663	–	164.17 ± 2.5	–
[2], 303.15 K, x1 = 0.6902	–	165.56 ± 2.6	–
[2], 303.15 K, x1 = 0.7118	–	166.65 ± 2.6	–
[2], 303.15 K, x1 = 0.7534	–	168.72 ± 2.6	–
[2], 303.15 K, x1 = 0.7927	–	170.62 ± 2.6	–
[2], 303.15 K, x1 = 0.8426	–	172.98 ± 2.7	–
[2], 303.15 K, x1 = 0.8914	–	175.22 ± 2.7	–
[2], 303.15 K, x1 = 0.9206	–	176.53 ± 2.7	–
[2], 308.15 K, x1 = 0.0865	–	130.3 ± 2	–
[2], 308.15 K, x1 = 0.1145	–	132.27 ± 2	–
[2], 308.15 K, x1 = 0.1386	–	133.94 ± 2.1	–
[2], 308.15 K, x1 = 0.1829	–	136.97 ± 2.1	–
[2], 308.15 K, x1 = 0.2145	–	139.09 ± 2.1	–
[2], 308.15 K, x1 = 0.2573	–	141.91 ± 2.2	–
[2], 308.15 K, x1 = 0.2965	–	144.45 ± 2.2	–
[2], 308.15 K, x1 = 0.3217	–	146.05 ± 2.3	–
[2], 308.15 K, x1 = 0.3506	–	147.87 ± 2.3	–
[2], 308.15 K, x1 = 0.3902	–	150.31 ± 2.3	–
[2], 308.15 K, x1 = 0.4216	–	152.22 ± 2.4	–
[2], 308.15 K, x1 = 0.4654	–	154.82 ± 2.4	–
[2], 308.15 K, x1 = 0.5007	–	156.88 ± 2.4	–
[2], 308.15 K, x1 = 0.5418	–	159.23 ± 2.5	–
[2], 308.15 K, x1 = 0.5905	–	161.94 ± 2.5	–
[2], 308.15 K, x1 = 0.6218	–	163.64 ± 2.5	–
[2], 308.15 K, x1 = 0.663	–	165.83 ± 2.6	–
[2], 308.15 K, x1 = 0.6902	–	167.25 ± 2.6	–
[2], 308.15 K, x1 = 0.7118	–	168.36 ± 2.6	–
[2], 308.15 K, x1 = 0.7534	–	170.46 ± 2.6	–
[2], 308.15 K, x1 = 0.7927	–	172.38 ± 2.7	–
[2], 308.15 K, x1 = 0.8426	–	174.76 ± 2.7	–
[2], 308.15 K, x1 = 0.8914	–	177 ± 2.7	–
[2], 308.15 K, x1 = 0.9206	–	178.31 ± 2.8	–
